Assay results published in patent US7723023B2, “Use of intrinsic reporters of cell signaling for high content drug profiling and toxicity screening” (Mount Sinai School of Medicine, priority 2001, dated 2010).
“And” between values parts separate entries of the source, which are not always exact repeats. Equal entries are not always repeated.

How the values were obtained:
[1] = tested on: gonadotrope cell line LβT2 cells; experiment: Time course of IRC response to GnRH in presence and absence of cyclohexamide (CHX); type: cell-based, mouse; settings: 100 nM GnRH, protein synthesis inhibitor cyclohexamide
Protocol: The cells were treated with 100 nM GnRH in the presence and absence of the inhibitor of protein synthesis, cyclohexamide (CHX). […] No other proteins need to be synthesized to induce activation of this IRC. The use of a time course such as that illustrated allow selection of the optimum time point or time points after stimulation at which to assay the IRCs to provide the most complete map of the cell global signal transduction response.
The proper time point or time points after exposure can be determined experimentally in any system by performing a time course of the gene response. If a single time point after exposure is assayed, it is best to select a time at which most IRCs are continuing to show an increase in the level of expression. This is usually between 30 minutes and 1 hour.

[2] = tested on: GnRHR-expressing LβT2 gonadotrope cell line; experiment: Focused cDNA microarray analysis (FMA) of genes regulated by GnRH in LβT2 cells; type: cell-based, mouse
Protocol: Cell Culture and Sample Preparation: LβT2 cells were obtained and maintained at 37° C. in 5% CO2 in humidified air in DMEM (Mediatech) containing 10% fetal bovine serum (Gemini). For experiments. 40-50×10^6 cells were seeded in 15 cm dishes. The medium was replaced 21 hours later with DMEM containing 25 mM HEPES (Mediatech) and glutamine. […] The incubation was stopped by aspirating the incubation medium and adding 10 ml of lysis buffer (4M guanidinium thiocyanate, 25 mM sodium citrate, pH 7.0, 0.5% N-lauroyl-sarcosine, and 0.1 M 2-mercaptoethanol). Total RNA was isolated according to the method of Chomczynski and Sacchi (1987) supra. Approximately 400 μg total RNA was obtained from each plate.
Microarray Development: The 956 clones were selected from an NIA 15K library (Tanaka et al. (2000) Proc. Natl. Acad. Sci. USA 97:9127-9132) or purchased from Research Genetics. The gene selection was partially based on literature searches. A large number of genes known to be induced at early time points in other experimental systems were included as well as 67 putative “housekeeping” genes. Plasmids were purified using the Qiaprep 96 Turbo Miniprep kit. Following insert amplification by PCR, products were confirmed by agarose gel electrophoresis and purified with Qiaquick 96 kit (Qiagen). The product was dried, dissolved in 18 μl H2O. 50% DMSO or 3×SSC and spotted (3 hits/feature, 3 features/gene) with a GMS 417 Arrayer (Affymetrix) on CMT-GAPS coated glass slides (Corning). DNA was fixed either by incubating the slide 3.5 hours at 40° C. followed by 10 min at 100° C. or for 2 hours at 85° C. or by UV crosslinking with 90 mJ (Stratalinker, Stratagene). Arrays were stored light-protected at room temperature until use. A Cy5-labeled oligomer complementary to one of the amplification primers was designed to test printing and attachment efficiency (5′-CGTTTTACAACGTCGTGACTGGG-3′) (SEQ ID NO:1). 12% of the cDNAs on the array were confirmed by sequencing, including randomly selected clones on each 96-well plate and all genes that were identified as regulated.
RNA Labeling and Hybridization. 20 μg of total RNA from each sample was labeled with either Cy3 or Cy5 using the Atlas indirect labeling kit (Clontech) as indicated by the manufacturer. Following array prehybridization in 6×SSC, 0.5% SDS, 1% BSA at 42° C. for 45 min, the probe was denatured and hybridized in 24 μl 50% formamid, 6×SSC, 0.5% SDS. 5×Denhardt's with 2.4 μg salmon sperm DNA, 10 μg poly dA at 42° C. (room temperature for test oligomer hybridization) for 16 hours. Following 10 min washes in 0.1×SSC, 0.1% SDS, and twice in 0.1×SSC the slide was scanned using the GMS 418 Scanner (Affymetrix).
Data Analysis. […] The median background-subtracted feature intensity was utilized for further analysis. Overall differences in the signal intensity of the two wavelengths measured on each slide (λ=532 nm and λ=635 nm) were corrected using the locally linear robust scatterplot smoother implemented in the loess function in S Plus Professional (Insightful Corporation). Predictors were generated using a symmetric distribution, span=0.75 (Venables and Ripley (1999) Modern Applied Statistics with S-Plus. Spring, N.Y. Measurement precision was estimated by determining the median coefficient of variation within slides for each gene:
[formula] Genes were selected according to the following algorithm (i) ±fold-change of >1.3; (ii) |t|>3; (iii) signal intensity in at least one channel >1% of the median signal intensity value; (iv) criteria i-iii observed in at least 2 of 3 experiments.
Microarray Identification of Genes Activated by GnRH is LβT2 Cells. The response to GnRH was studied in the GnRHR-expressing LβT2 gonadotrope cell line (Turgeon et al. (1996) Mol Endocrinol. 10:439-450). Three separate experiments comparing the effects of 1 hour exposure to GnRH or vehicle were performed. […]

[3] = 100 nM GnRH vs vehicle, 1 hour, LβT2 cells
[4] = two clones spotted in different locations on the arrays, 100 nM GnRH, 1 hour

gonadotropin releasing hormone [GnRH]
levels of gly96 in the presence of CHX [1]: increase | 1κB fold-change, Microarray (n = 3) [2, 3]: 1.7 ± 0.2 fold | Egr1 fold-change, Microarray (n = 3) [2, 3]: 12.9 ± 3.8 fold | Egr2 fold-change, Microarray (n = 3) [2, 3]: 1.5 ± 0.2 fold | Gem fold-change, Microarray (n = 3) [2, 3]: 1.7 ± 0.2 fold | HSP30 fold-change, Microarray (n = 3) [2, 3]: 1.3 ± 0.2 fold | Klf4 fold-change, Microarray (n = 3) [2, 3]: 1.7 ± 0.3 fold | Klf-like EST fold-change, Microarray (n = 3) [2, 3]: 2.3 ± 0.3 fold | LRG21 fold-change, Microarray (n = 3) [2, 3]: 31.2 ± 16.6 fold | MKP1/3CH134 fold-change, Microarray (n = 3) [2, 3]: 1.4 ± 0.1 fold | NMDMC fold-change, Microarray (n = 3) [2, 3]: 1.4 ± 0.3 fold | Nr4a1/nur77 fold-change, Microarray (n = 3) [2, 3]: 5.9 ± 1.5 fold | Nrf2 fold-change, Microarray (n = 3) [2, 3]: 1.3 ± 0.2 fold | PRL1 fold-change, Microarray (n = 3) [2, 3]: 2.0 ± 0.4 fold | Period1 fold-change, Microarray (n = 3) [2, 3]: 2.1 ± 0.1 fold | Rgs2 fold-change, Microarray (n = 3) [2, 3]: 4.0 ± 1.3 fold | TSC22 fold-change, Microarray (n = 3) [2, 3]: 3.4 ± 0.4 fold | c-fos fold-change, Microarray (n = 3) [2, 3]: 12.5 ± 4.0 fold | c-jun fold-change, Microarray (n = 3) [2, 3]: 3.8 ± 0.6 fold | gly96 fold-change, Microarray (n = 3) [2, 3]: 1.7 ± 0.6 fold | ler2/Pip92 fold-change, Microarray (n = 3) [2, 3]: 5.2 ± 1.2 fold | transgelin fold-change, Microarray (n = 3) [2, 3]: 1.4 ± 0.1 fold | β-actin fold-change, Microarray (n = 3) [2, 3]: 2.0 ± 0.5 fold | γ-actin fold-change, Microarray (n = 3) [2, 3]: 2.7 ± 0.3 fold | Time course of induced genes, FMA ([2]; cells exposed to GnRH for 3 hours and 6 hours): nearly all of the induced genes return to baseline levels of expression by 3 hours | Nrf2 degree of change on microarray, two different clones [2, 4]: 1.3±0.2 and 1.3±0.1 | PRL1 degree of change on microarray, two different clones [2, 4]: 2.0±0.4 and 1.5±0.4 | Rgs2 degree of change on microarray, two different clones [2, 4]: 4.0±1.3 and 2.9±1.2 | TSC22 degree of change on microarray, two different clones [2, 4]: 3.4±0.4 and 3.3±0.6
